In brackets after ≈: the same amount, converted by molar mass.
How the values were obtained:
Test in all cases: MIC, broth microdilution in Meuller-Hinton broth (NCCLS)
[1] = tested on: 533 S. epidermidis; type: cell-based, Staphylococus epidermidis; settings: clinical isolate
Experimental: (§1) Antibacterial activity in vitro was investigated by broth microdilution method in Meuller-Hinton broth as recommended by NCCLS. All strains tested were clinical isolates either sensitive or resistant to natural glycopeptides. Results are reported in the tables as MIC (minimal inhibitory concentration) in μg/ml.
(§2) The glycopeptides were tested against a variety of strains, indicated below, including Staphylococus epidermidis, Staphylococus haemolyticus, glycopeptides-intermediate Staphylococus aureus (GISA), glocopeptide-sensitive Enterococcus faecalis (GSE), and glocopeptide-resistant Enterococcus faecalis (GRE). Results are shown in the table as minimum inhibitory concentration (MIC) in units of μg/ml: […]

[2] = tested on: 602 S. haemolyticus; type: cell-based, Staphylococus haemolyticus; settings: clinical isolate
Experimental: as §1, §2

[3] = tested on: 3797 S. aureus (GISA); type: cell-based, Staphylococus aureus; settings: glycopeptides-intermediate clinical isolate
Experimental: as §1, §2

[4] = tested on: 3798 S. aureus (GISA); type: cell-based, Staphylococus aureus; settings: glycopeptides-intermediate clinical isolate
Experimental: as §1, §2

[5] = tested on: 568 E. faecium (GSE); type: cell-based; settings: glycopeptide-sensitive clinical isolate
Experimental: as §1, §2

[6] = tested on: 569 E. faecium (GRE); type: cell-based; settings: glycopeptide-resistant clinical isolate
Experimental: as §1, §2

[7] = tested on: 559 E. faecalis (GSE); type: cell-based, Enterococcus faecalis; settings: glycopeptide-sensitive clinical isolate
Experimental: as §1, §2

[8] = tested on: 560 E. faecalis (GRE); type: cell-based, Enterococcus faecalis; settings: glycopeptide-resistant clinical isolate
Experimental: as §1, §2

Row | SMILES | MIC 533 S. epidermidis [1] [mg/L] | MIC 602 S. haemolyticus [2] [mg/L] | MIC 3797 S. aureus (GISA) [3] [mg/L] | MIC 3798 S. aureus (GISA) [4] [mg/L] | MIC 568 E. faecium (GSE) [5] [mg/L] | MIC 569 E. faecium (GRE) [6] [mg/L] | MIC 559 E. faecalis (GSE) [7] [mg/L] | MIC 560 E. faecalis (GRE) [8] [mg/L]
1 | CCCCCCCCOc1ccc(CNC(CCCN)C(=O)NC2(C)CC(OC3C(Oc4c5cc6cc4Oc4ccc(cc4Cl)C(O)C4NC(=O)C(NC(=O)C6NC(=O)C(CC(N)=O)NC(=O)C(NC(=O)C(CC(C)C)NC)C(O)c6ccc(c(Cl)c6)O5)c5ccc(O)c(c5)-c5c(O)cc(O)cc5C(C(=O)O)NC4=O)OC(CO)C(O)C3O)OC(C)C2O)cc1 (stereo not drawn) [Compound 241] | 0.5 (≈ 0.281 µM) | 1 (≈ 0.561 µM) | 2 (≈ 1.12 µM) | 2 (≈ 1.12 µM) | 1 (≈ 0.561 µM) | 16 (≈ 8.98 µM) | 1 (≈ 0.561 µM) | 16 (≈ 8.98 µM)
2 | CCCCc1ccc(CN[C@@H](CCCN)C(=O)NC2(C)CC(OC3C(Oc4c5cc6cc4Oc4ccc(cc4Cl)C(O)C(NC(=O)C(CC(C)C)NC)C(=O)NC(CC(N)=O)C(=O)NC6C(=O)NC4C(=O)NC(C(=O)NC(C(=O)O)c6cc(O)cc(O)c6-c6cc4ccc6O)C(OC4CC(C)(N)C(O)C(C)O4)c4ccc(cc4)O5)OC(CO)C(O)C3O)OC(C)C2O)cc1 (stereo partly drawn) [Compound 242] | 0.25 (≈ 0.137 µM) | 1 (≈ 0.55 µM) | 4 (≈ 2.2 µM) | 4 (≈ 2.2 µM) | 0.5 (≈ 0.275 µM) | 8 (≈ 4.4 µM) | 1 (≈ 0.55 µM) | 8 (≈ 4.4 µM)
3 | CNC(CC(C)C)C(=O)NC1C(=O)NC(CC(N)=O)C(=O)NC2C(=O)NC3C(=O)NC(C(=O)NC(C(=O)NC(C)C45CC6CC(CC(C6)C4)C5)c4cc(O)cc(O)c4-c4cc3ccc4O)C(OC3CC(C)(N)C(O)C(C)O3)c3ccc(cc3)Oc3cc2cc(c3OC2OC(CO)C(O)C(O)C2OC2CC(C)(N)C(O)C(C)O2)Oc2ccc(cc2Cl)C1O (stereo not drawn) [Compound 262] | 0.5 (≈ 0.291 µM) | 1 (≈ 0.582 µM) | 4 (≈ 2.33 µM) | 2 (≈ 1.16 µM) | 0.5 (≈ 0.291 µM) | 16 (≈ 9.31 µM) | 1 (≈ 0.582 µM) | 16 (≈ 9.31 µM)
4 | CCCCc1ccc(CNCC(=O)NC2(C)CC(OC3C(Oc4c5cc6cc4Oc4ccc(cc4Cl)C(O)C(NC(=O)C(CC(C)C)NC)C(=O)NC(CC(N)=O)C(=O)NC6C(=O)NC4C(=O)NC(C(=O)NC(C(=O)NC6C7CC8CC(C7)CC6C8)c6cc(O)cc(O)c6-c6cc4ccc6O)C(OC4CC(C)(N)C(O)C(C)O4)c4ccc(cc4)O5)OC(CO)C(O)C3O)OC(C)C2O)cc1 (stereo not drawn) [Compound 263] | 8 (≈ 4.22 µM) | 8 (≈ 4.22 µM) | 16 (≈ 8.45 µM) | 16 (≈ 8.45 µM) | 8 (≈ 4.22 µM) | 8 (≈ 4.22 µM) | 8 (≈ 4.22 µM) | 8 (≈ 4.22 µM)
5 | CCCCc1ccc(CNCC(=O)NC2(C)CC(OC3C(Oc4c5cc6cc4Oc4ccc(cc4Cl)C(O)C(NC(=O)C(CC(C)C)NC)C(=O)NC(CC(N)=O)C(=O)NC6C(=O)NC4C(=O)NC(C(=O)NC(C(=O)NC(C)C67CC8CC(CC(C8)C6)C7)c6cc(O)cc(O)c6-c6cc4ccc6O)C(OC4CC(C)(N)C(O)C(C)O4)c4ccc(cc4)O5)OC(CO)C(O)C3O)OC(C)C2O)cc1 (stereo not drawn) [Compound 264] | 4 (≈ 2.08 µM) | 8 (≈ 4.16 µM) | 8 (≈ 4.16 µM) | 16 (≈ 8.32 µM) | 4 (≈ 2.08 µM) | 8 (≈ 4.16 µM) | 4 (≈ 2.08 µM) | 8 (≈ 4.16 µM)
6 | CCCCc1ccc(CNCC(=O)NC2(C)CC(OC3C(Oc4c5cc6cc4Oc4ccc(cc4Cl)C(O)C4NC(=O)C(NC(=O)C6NC(=O)C(CC(N)=O)NC(=O)C(NC(=O)C(CC(C)C)NC)C(O)c6ccc(c(Cl)c6)O5)c5ccc(O)c(c5)-c5c(O)cc(O)cc5C(C(=O)NCc5ccc(F)cc5)NC4=O)OC(CO)C(O)C3O)OC(C)C2O)cc1 (stereo not drawn) [Compound 276] | 0.5 (≈ 0.284 µM) | 2 (≈ 1.14 µM) | 2 (≈ 1.14 µM) | 2 (≈ 1.14 µM) | 2 (≈ 1.14 µM) | 16 (≈ 9.09 µM) | 4 (≈ 2.27 µM) | 16 (≈ 9.09 µM)
7 | CCCCCCCCOc1ccc(CNCC(=O)NC2(C)CC(OC3C(Oc4c5cc6cc4Oc4ccc(cc4Cl)C(O)C4NC(=O)C(NC(=O)C6NC(=O)C(CC(N)=O)NC(=O)C(NC(=O)C(CC(C)C)NC)C(O)c6ccc(c(Cl)c6)O5)c5ccc(O)c(c5)-c5c(O)cc(O)cc5C(C(=O)NCc5ccc(F)cc5)NC4=O)OC(CO)C(O)C3O)OC(C)C2O)cc1 (stereo not drawn) [Compound 277] | 4 (≈ 2.18 µM) | 8 (≈ 4.37 µM) | 8 (≈ 4.37 µM) | 4 (≈ 2.18 µM) | 4 (≈ 2.18 µM) | 8 (≈ 4.37 µM) | 4 (≈ 2.18 µM) | 8 (≈ 4.37 µM)
8 | CNC(CC(C)C)C(=O)NC1C(=O)NC(CC(N)=O)C(=O)NC2C(=O)NC3C(=O)NC(C(=O)NC(C(=O)O)c4cc(O)cc(O)c4-c4cc3ccc4O)C(OC3CC(C)(N)C(O)C(C)O3)c3ccc(cc3)Oc3cc2cc(c3OC2OC(CO)C(O)C(O)C2OC2CC(C)(NC(=O)CNCc3cc4ccccc4c4ccccc34)C(O)C(C)O2)Oc2ccc(cc2Cl)C1O (stereo not drawn) [Compound 287] | 2 (≈ 1.11 µM) | 2 (≈ 1.11 µM) | 16 (≈ 8.86 µM) | 16 (≈ 8.86 µM) | 2 (≈ 1.11 µM) | >64 | 2 (≈ 1.11 µM) | >64
9 | CNC(CC(C)C)C(=O)NC1C(=O)NC(CC(N)=O)C(=O)NC2C(=O)NC3C(=O)NC(C(=O)NC(C(=O)NCc4ccc(F)cc4)c4cc(O)cc(O)c4-c4cc3ccc4O)C(O)c3ccc(c(Cl)c3)Oc3cc2cc(c3OC2OC(CO)C(O)C(O)C2OC2CC(C)(N)C(O)C(C)O2)Oc2ccc(cc2Cl)C1O (stereo not drawn) [Compound 288] | 2 (≈ 1.29 µM) | 1 (≈ 0.643 µM) | 4 (≈ 2.57 µM) | 4 (≈ 2.57 µM) | 0.13 (≈ 0.0835 µM) | >64 | 0.13 (≈ 0.0835 µM) | >64
